According to patent US10448639B2, “Fungicidal pyrazoles” (FMC CORPORATION, priority 2009, dated 2019):

Key:
[1] = test system: Erysiphe graminis f sp. tritici; assay: Test J: wheat powdery mildew, preventive spray on wheat seedlings, visual disease rating; details: for Test J rating (% disease control): preventive spray, 0 = no control
Rhizoctonia solani = assay: Test E: turf brown patch, preventive spray on creeping bent grass (Agrostis sp.) seedlings, disease rating; format: in vivo; details: 100 = 100% disease control; for Test E rating (% disease control): preventive spray, 0 = no control
Excerpt: A dash (-) indicates no test results.

Phytophthora infestans = format: in vivo; details: tomato late blight, 100 = 100% disease control; for Test D rating (% disease control): preventive spray, 0 = no control
Plasmopara viticola = assay: Test A: grape downy mildew, curative spray on inoculated grape seedlings, visual disease rating; format: in vivo; details: 100 = 100% disease control; for Test A rating (% disease control): curative spray, 0 = no control relative to controls
Excerpt: Upon removal, visual disease ratings were made. […] A dash (-) indicates no test results.

Alternaria solani = assay: Test C: tomato early blight, preventive spray on tomato seedlings, visual disease rating; details: for Test C rating (% disease control): preventive spray, 0 = no control
Excerpt: General protocol for preparing test suspensions for Tests A-J: the test compounds were first dissolved in acetone in an amount equal to 3% of the final volume and then suspended at the desired concentration (in ppm) in acetone and purified water (50/50 mix by volume) containing 250 ppm of the surfactant Trem® 014 (polyhydric alcohol esters). The resulting test suspensions were then used in Tests A-J. Spraying a 200 ppm test suspension to the point of run-off on the test plants was the equivalent of a rate of 500 g/ha. Unless otherwise indicated, the rating values indicate a 200 ppm test suspension was used. (An asterisk “*” next to the rating value indicates a 40 ppm test suspension was used.)
The test suspension was sprayed to the point of run-off on tomato seedlings. The following day the seedlings were inoculated with a spore suspension of Alternaria solani (the causal agent of tomato early blight) and incubated in a saturated atmosphere at 27° C. for 48 h, and then moved to a growth chamber at 20° C. for 5 days, after which time visual disease ratings were made.

Botrytis cinerea = assay: Test B: tomato Botrytis, preventive spray on tomato seedlings, visual disease rating; details: for Test B rating (% disease control): preventive spray, 0 = no control
[2] = test system: Puccinia recondita f. sp. tritici; assay: Test I: wheat leaf rust, preventive spray on wheat seedlings, visual disease rating; details: for Test I rating (% disease control): preventive spray, 0 = no control
Septoria tritici = assay: Test G: wheat leaf blotch, preventive spray on wheat seedlings, visual disease rating; details: for Test G rating (% disease control): preventive spray, 0 = no control
Septoria nodorum = assay: Test F: Septoria glume blotch, preventive spray on wheat seedlings, visual disease rating; details: for Test F rating (% disease control): preventive spray, 0 = no control
[3] = 0 = no disease control relative to controls
[4] = wheat powdery mildew, 100 = 100% disease control
[5] = tomato early blight, 100 = 100% disease control
[6] = tomato Botrytis, 100 = 100% disease control
[7] = wheat leaf rust, 100 = 100% disease control
[8] = wheat leaf blotch, 100 = 100% disease control
[9] = Septoria glume blotch on wheat, 100 = 100% disease control

SMILES | Test J rating (% disease control) [1, 4] [%] | Test E rating (% disease control) (Rhizoctonia solani) [%] | Test D rating (% disease control) (Phytophthora infestans) [%] | Test A rating (% disease control) (Plasmopara viticola) [%] | Test C rating (% disease control) (Alternaria solani; [5]) [%] | Test B rating (% disease control) (Botrytis cinerea; [6]) [%] | Test I rating (% disease control) [2, 7] [%] | Test G rating (% disease control) (Septoria tritici; [8]) [%] | Test F rating (% disease control) (Septoria nodorum; [9]) [%] | further results
Cc1nn(C)c(N(CC#N)c2c(F)cc(F)cc2F)c1-c1ccc(F)cc1Cl [compound 326] | – | – | – | – | – | – | – | – | – | Test J disease control rating ([1]; wheat powdery mildew, sprayed the day before inoculation, 100 = 100% disease control, 0 = no disease control relative to controls): 94%; Test E disease control rating (Rhizoctonia solani; [3]): 99%; Test D disease control rating (Phytophthora infestans; [3]): 0%; Test A disease control rating (Plasmopara viticola; [3]): 8%; Test C disease control rating (Alternaria solani; tomato early blight, 100 = 100% disease control, 0 = no disease control relative to controls): 99%; Test B disease control rating (Botrytis cinerea; tomato Botrytis, 100 = 100% disease control, 0 = no disease control relative to controls): 99%; Test I disease control rating ([2]; wheat leaf rust, sprayed the day before inoculation, 100 = 100% disease control, 0 = no disease control relative to controls): 99%; Test G disease control rating (Septoria tritici; wheat leaf blotch, sprayed the day before inoculation, 100 = 100% disease control, 0 = no disease control relative to controls): 100%; Test F disease control rating (Septoria nodorum; Septoria glume blotch on wheat, 100 = 100% disease control, 0 = no disease control relative to controls): 73%
Cc1nn(C)c(Nc2cccc(F)c2)c1-c1ccc(F)cc1Cl [compound 8] | 99 | 99 | 0 | 55 | 54 | 99 | 97 | 100 | 0 | –
Cc1nn(C)c(Nc2cccc(Cl)c2)c1-c1ccc(F)cc1F [Compound 1, N-(3-Chlorophenyl)-4-(2,4-difluorophenyl)-1,3-dimethyl-1H-pyrazol-5-amine] | – | 47 | 0 | 0 | – | – | – | – | – | pest or weed control at 200 µg/mL ([1]; Blumeria graminis, in Triticum aestivum, 192 h, read-out: Test J rating (% disease control)): 98%; pest or weed control at 200 µg/mL (Alternaria solani; Alternaria solani, in Solanum lycopersicum, 168 h, read-out: Test C rating (% disease control)): 0%; pest or weed control at 200 µg/mL (Botrytis cinerea; Botrytis cinerea, in Solanum lycopersicum, 120 h, read-out: Test B rating (% disease control)): 99%; pest or weed control at 200 µg/mL ([2]; 192 h, read-out: Test I rating (% disease control)): 0%; pest or weed control at 200 µg/mL (Septoria tritici; Zymoseptoria tritici, in Triticum aestivum, 504 h, read-out: Test G rating (% disease control)): 99%; pest or weed control at 200 µg/mL (Septoria nodorum; Parastagonospora nodorum, in Triticum aestivum, 192 h, read-out: Test F rating (% disease control)): 0%
Cc1nn(C)c(Nc2cc(F)cc(F)c2)c1-c1ccc(Cl)cc1 [compound 5] | 0 | 0 | 0 | 36 | 25 | 0 | 0 | 0 | 0 | –
COc1cc(Nc2c(-c3ccc(F)cc3F)c(C)nn2C)cc(OC)c1 [compound 2] | 0 | 0 | 0 | 8 | 0 | 1 | 0 | 0 | 0 | –
